Assay results: US20250145585A1, “HETEROCYCLIC INHIBITORS OF IGF-1R FOR TREATMENT OF DISEASE” (HORIZON THERAPEUTICS IRELAND DAC, priority 2023, published 2025)

What follows are compounds tested against T1, IGF-1R (Homo sapiens, UniProt P08069) (assay: Example B-2: IGF-1R Assay (PathHunter cell lines, EC80 agonist challenge, chemiluminescent detection)). Settings: PathHunter cells, compound 60 minutes at 37° C., EC80 agonist 3 hours; read-out: IC50, Biological Activity against IGF-1R (Table B2).
T1 construct: expressed in transfected cells
T1 sequence (P08069 31-1367): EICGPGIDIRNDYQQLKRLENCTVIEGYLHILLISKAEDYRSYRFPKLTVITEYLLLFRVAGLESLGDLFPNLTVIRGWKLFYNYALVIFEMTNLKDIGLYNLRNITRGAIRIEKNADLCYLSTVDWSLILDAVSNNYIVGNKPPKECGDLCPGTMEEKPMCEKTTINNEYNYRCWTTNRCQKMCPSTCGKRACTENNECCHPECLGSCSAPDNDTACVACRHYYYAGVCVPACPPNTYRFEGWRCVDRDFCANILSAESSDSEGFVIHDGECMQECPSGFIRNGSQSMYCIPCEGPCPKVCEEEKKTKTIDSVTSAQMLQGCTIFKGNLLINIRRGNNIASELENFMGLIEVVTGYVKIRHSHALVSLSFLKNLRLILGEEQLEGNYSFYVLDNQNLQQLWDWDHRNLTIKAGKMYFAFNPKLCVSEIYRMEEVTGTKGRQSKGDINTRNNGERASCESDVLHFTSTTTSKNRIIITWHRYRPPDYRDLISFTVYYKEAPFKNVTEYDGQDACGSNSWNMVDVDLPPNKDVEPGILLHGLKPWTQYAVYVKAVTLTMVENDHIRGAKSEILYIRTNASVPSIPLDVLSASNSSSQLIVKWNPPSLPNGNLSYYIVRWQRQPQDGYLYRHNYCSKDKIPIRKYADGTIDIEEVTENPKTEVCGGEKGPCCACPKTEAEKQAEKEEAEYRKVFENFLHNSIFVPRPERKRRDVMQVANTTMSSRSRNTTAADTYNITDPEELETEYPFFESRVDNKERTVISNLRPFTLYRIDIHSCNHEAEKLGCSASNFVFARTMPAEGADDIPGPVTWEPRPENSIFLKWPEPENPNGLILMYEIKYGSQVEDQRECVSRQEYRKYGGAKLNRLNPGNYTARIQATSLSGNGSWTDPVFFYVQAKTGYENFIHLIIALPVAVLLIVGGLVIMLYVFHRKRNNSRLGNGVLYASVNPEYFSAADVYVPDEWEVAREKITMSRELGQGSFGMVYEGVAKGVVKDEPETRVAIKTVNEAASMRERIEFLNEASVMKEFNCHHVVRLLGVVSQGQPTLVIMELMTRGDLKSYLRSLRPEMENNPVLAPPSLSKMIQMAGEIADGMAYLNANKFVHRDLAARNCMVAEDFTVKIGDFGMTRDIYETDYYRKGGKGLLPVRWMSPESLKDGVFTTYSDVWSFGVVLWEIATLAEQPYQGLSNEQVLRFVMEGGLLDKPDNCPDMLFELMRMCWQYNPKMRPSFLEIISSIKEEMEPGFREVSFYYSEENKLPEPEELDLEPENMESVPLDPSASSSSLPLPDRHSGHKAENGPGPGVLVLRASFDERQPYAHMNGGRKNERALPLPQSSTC
Format: cell-based
Outline: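 PathHunter cells were pre-incubated with compound for 60 min at 37° C (1% vehicle), then challenged with EC80 agonist for 3 h at room temperature. Chemiluminescent detection after 1 h gave % inhibition relative to EC80 and vehicle controls, from which IC50 was derived.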

SMILES	IC50 [nM]
CC1(C)C(=O)N(c2ccc3c(c2)N(C(=O)C2CC2)CC3)C(=O)N1Cc1ccnc(N[C@H]2[C@@H]3COC[C@@H]32)c1 [Compound 252, 1-((2-(((1R,5S,6r)-3-oxabicyclo[3.1.0]hexan-6-yl)amino)pyridin-4-yl)methyl)-3-(1-(cyclopropanecarbonyl)indolin-6-yl)-5,5-dimethylimidazolidine-2,4-dione]	> 10000
CC1(C)C(=O)N(c2ccc3c(c2)N(S(C)(=O)=O)CC32CC2)C(=O)N1Cc1ccnc2c1CC(=O)N2 [Compound 45, 5,5-dimethyl-3-(1′-(methylsulfonyl)spiro[cyclopropane-1,3′-indolin]-6′-yl)-1-((2-oxo-2,3-dihydro-1H-pyrrolo[2,3-b]pyridin-4-yl)methyl)imidazolidine-2,4-dione]	≤ 500
CC(Nc1cc(CN2C(=O)N(c3ccc(C4(C(F)(F)F)CC4)cc3)C(=O)C2(C)C)ccn1)c1cnn(C)c1 (stereo not drawn) [Compound 167, 5,5-dimethyl-1-((2-((1-(1-methyl-1H-pyrazol-4-yl)ethyl)amino)pyridin-4-yl)methyl)-3-(4-(1-(trifluoromethyl)cyclopropyl)phenyl) imidazolidine-2,4-dione]	≤ 500
CC1(c2ccc(N3C(=O)N(Cc4ccnc5c4CC(=O)N5)C(C)(C)C3=O)cc2)CC1 [Compound 48, 5,5-dimethyl-3-(4-(1-methylcyclopropyl)phenyl)-1-((2-oxo-2,3-dihydro-1H-pyrrolo[2,3-b]pyridin-4-yl)methyl)imidazolidine-2,4-dione]	≤ 500
CC1(C)C(=O)N(c2ccc(C3(C#N)CC3(C)C)cc2)C(=O)N1Cc1ccnc(N[C@H]2[C@@H]3COC[C@@H]32)c1 (stereo partly drawn) [Compound 170, 1-(4-(3-((2-(((1R,5S,6r)-3-oxabicyclo[3.1.0]hexan-6-yl)amino)pyridin-4-yl)methyl)-4,4-dimethyl-2,5-dioxoimidazolidin-1-yl)phenyl)-2,2-dimethylcyclopropane-1-carbonitrile]	≤ 500
CC1(C)C(=O)N(c2ccc(C34CC(C3)C4)cc2)C(=O)N1Cc1ccnc2c1CC(=O)N2 [Compound 32, 3-(4-(bicyclo[1.1.1]pentan-1-yl)phenyl)-5,5-dimethyl-1-((2-oxo-2,3-dihydro-1H-pyrrolo[2,3-b]pyridin-4-yl)methyl)imidazolidine-2,4-dione]	≤ 500
CC1(C)C(=O)N(c2ccc(C3(C#N)CCC3)cc2)C(=O)N1Cc1ccnc2c1CC(=O)N2 [Compound 40, (1-(4-(4,4-dimethyl-2.5-dioxo-3-((2-oxo-2,3-dihydro-1H-pyrrolo[2,3-b]pyridin-4-yl)methyl)imidazolidin-1-yl)phenyl)cyclobutane-1-carbonitrile)]	≤ 500
CC1(C)CN(S(C)(=O)=O)c2cc(N3C(=O)N(Cc4ccnc(NCc5cc[nH]n5)c4)C(C)(C)C3=O)ccc21 [Compound 245, 1-((2-(((1H-pyrazol-3-yl)methyl)amino)pyridin-4-yl)methyl)-3-(3,3-dimethyl-1-(methylsulfonyl)indolin-6-yl)-5,5-dimethylimidazolidine-2,4-dione]	≤ 500
CC1(C)CN(S(C)(=O)=O)c2cc(N3C(=O)N(Cc4ccnc5c4CC(=O)N5)C(C)(C)C3=O)ccc21 [Compound 37, 3-(3,3-dimethyl-1-(methylsulfonyl)indolin-6-yl)-5,5-dimethyl-1-((2-oxo-2,3-dihydro-1H-pyrrolo[2,3-b]pyridin-4-yl)methyl)imidazolidine-2,4-dione]	≤ 500
CC(C)(C)C(=O)Oc1cc2c(CN3C(=O)N(c4ccc(C5(C(F)(F)F)CC5)cc4)C(=O)C3(C)C)ccnc2[nH]1 [Compound 77, 4-((5,5-dimethyl-2,4-dioxo-3-(4-(1-(trifluoromethyl)cyclopropyl)phenyl)imidazolidin-1-yl)methyl)-1H-pyrrolo [2,3-b]pyridin-2-yl pivalate]	≤ 500
CC1(C)C(=O)N(c2ccc(C3(C#N)CC3(C)C)cc2)C(=O)N1Cc1ccnc2c1CC(=O)N2 (stereo not drawn) [Compound 61, 1-(4-(4,4-dimethyl-2,5-dioxo-3-((2-oxo-2,3-dihydro-1H-pyrrolo[2,3-b]pyridin-4-yl)methyl)imidazolidin-1-yl)phenyl)-2,2-dimethylcyclopropane-1-carbonitrile]	≤ 500
CC1(C)C(=O)N(c2ccc(OC(F)(F)F)cc2)C(=O)N1Cc1ccnc2c1CC(=O)N2 [Compound 285, 5,5-dimethyl-1-((2-oxo-2,3-dihydro-1H-pyrrolo[2,3-b]pyridin-4-yl)methyl)-3-(4-(trifluoromethoxy)phenyl) imidazolidine-2,4-dione]	500 to 2000
CC1(C)C(=O)N(c2ccc(C3(C(F)(F)F)CC3)cc2)C(=O)N1Cc1ccnc(NC2CCc3cn[nH]c3C2)c1 (stereo not drawn) [Compound 161, 5,5-dimethyl-1-((2-((4,5,6,7-tetrahydro-1H-indazol-6-yl)amino)pyridin-4-yl)methyl)-3-(4-(1-(trifluoromethyl)cyclopropyl)phenyl) imidazolidine-2,4-dione]	≤ 500
CC1(C)C(=O)N(c2ccc(C3(C(F)(F)F)CC3)cc2)C(=O)N1Cc1ccnc(NCc2cc[nH]n2)c1 [Compound 184, 1-((2-(((1H-pyrazol-3-yl)methyl)amino)pyridin-4-yl)methyl)-5,5-dimethyl-3-(4-(1-(trifluoromethyl)cyclopropyl)phenyl) imidazolidine-2,4-dione]	≤ 500
CC1(C)C(=O)N(c2ccc(S(=O)(=O)C(F)(F)F)cc2)C(=O)N1Cc1ccnc(NC2CCNC(=O)C2)c1 (stereo not drawn) [Compound 333, 5,5-dimethyl-1-((2-((2-oxopiperidin-4-yl)amino)pyridin-4-yl)methyl)-3-(4-((trifluoromethyl)sulfonyl)phenyl) imidazolidine-2,4-dione]	500 to 2000
CC(CS(C)(=O)=O)Nc1cc(CN2C(=O)N(c3ccc(C4(C(F)(F)F)CC4)cc3)C(=O)C2(C)C)ccn1 (stereo not drawn) [Compound 140, 5,5-dimethyl-1-((2-((1-(methylsulfonyl)propan-2-yl)amino)pyridin-4-yl)methyl)-3-(4-(1-(trifluoromethyl)cyclopropyl)phenyl) imidazolidine-2,4-dione]	500 to 2000
C[C@H](CC#N)Nc1cc(CN2C(=O)N(c3ccc(S(=O)(=O)C(F)(F)F)cc3)C(=O)C2(C)C)ccn1 [Compound 331, (R)-3-((4-((5,5-dimethyl-2,4-dioxo-3-(4-((trifluoromethyl)sulfonyl)phenyl)imidazolidin-1-yl)methyl)pyridin-2-yl)amino)butanenitrile]	500 to 2000
CC1(C)COc2cc(N3C(=O)N(Cc4ccnc5c4CC(=O)N5)C(C)(C)C3=O)ccc21 [Compound 35, 3-(3,3-dimethyl-2,3-dihydrobenzofuran-6-yl)-5,5-dimethyl-1-((2-oxo-2,3-dihydro-1H-pyrrolo[2,3-b]pyridin-4-yl)methyl)imidazolidine-2,4-dione]	≤ 500

Next, values leading:

IC50 [nM]	SMILES
≤ 500	CC1(C)C(=O)N(c2ccc(C3(C#N)CC34CC4)cc2)C(=O)N1Cc1ccnc2c1CC(=O)N2 (stereo not drawn) [Compound 69, 1-(4-(4,4-dimethyl-2,5-dioxo-3-((2-oxo-2,3-dihydro-1H-pyrrolo[2,3-b]pyridin-4-yl)methyl)imidazolidin-1-yl)phenyl)spiro[2.2]pentane-1-carbonitrile]
> 10000	CC1(C)C(=O)N(c2ccc(OC(F)(F)F)c(NS(C)(=O)=O)c2)C(=O)N1Cc1ccnc2c1CC(=O)N2 [Compound 283, N-(5-(4,4-dimethyl-2,5-dioxo-3-((2-oxo-2,3-dihydro-1H-pyrrolo[2,3-b]pyridin-4-yl)methyl)imidazolidin-1-yl)-2-(trifluoromethoxy)phenyl) methanesulfonamide]
500 to 2000	CC1(C)C(=O)N(c2ccc(C3(C#N)CC3)cc2)C(=O)N1Cc1ccnc2c1CC(=O)N2 [Compound 64, 1-(4-(4,4-dimethyl-2,5-dioxo-3-((2-oxo-2,3-dihydro-1H-pyrrolo[2,3-b]pyridin-4-yl)methyl)imidazolidin-1-yl)phenyl)cyclopropane-1-carbonitrile]
> 10000	Cn1nc(C(C)(C)C)cc1N1C(=O)N(Cc2ccnc3[nH]ccc23)C(C)(C)C1=O [Compound 42, 1-((1H-pyrrolo[2,3-b]pyridin-4-yl)methyl)-3-(3-(tert-butyl)-1-methyl-1H-pyrazol-5-yl)-5,5-dimethylimidazolidine-2,4-dione]
≤ 500	COC[C@@H](C)Nc1cc(CN2C(=O)N(c3ccc4c(c3)OCC4(C)C)C(=O)C2(C)C)ccn1 [Compound 198, (R)-3-(3,3-dimethyl-2,3-dihydrobenzofuran-6-yl)-1-((2-((1-methoxypropan-2-yl)amino)pyridin-4-yl)methyl)-5,5-dimethylimidazolidine-2,4-dione]
≤ 500	CC1(C)C(=O)N(c2ccc(C3(C(F)(F)F)CC3)cc2)C(=O)N1Cc1ccnc2c1CCC(=O)N2 [Compound 38, 5,5-dimethyl-1-((7-oxo-5,6,7,8-tetrahydro-1,8-naphthyridin-4-yl)methyl)-3-(4-(1-(trifluoromethyl)cyclopropyl)phenyl) imidazolidine-2,4-dione]
≤ 500	CC1Cc2c(CN3C(=O)N(c4ccc(C5(C(F)(F)F)CC5)cc4)C(=O)C3(C)C)ccnc2N1 (stereo not drawn) [Compound 34, 5,5-dimethyl-1-((2-methyl-2,3-dihydro-1H-pyrrolo[2,3-b]pyridin-4-yl)methyl)-3-(4-(1-(trifluoromethyl)cyclopropyl)phenyl) imidazolidine-2,4-dione]
500 to 2000	CC1(C)C(=O)N(c2ccc(S(=O)(=O)C(F)(F)F)cc2)C(=O)N1Cc1ccnc(NC2CCN(S(C)(=O)=O)C2)c1 (stereo not drawn) [Compound 329, 5,5-dimethyl-1-((2-((1-(methylsulfonyl)pyrrolidin-3-yl)amino)pyridin-4-yl)methyl)-3-(4-((trifluoromethyl)sulfonyl)phenyl) imidazolidine-2,4-dione]
≤ 500	CNS(=O)(=O)c1ccc(CNc2cc(CN3C(=O)N(c4ccc(C5(C(F)(F)F)CC5)cc4)C(=O)C3(C)C)ccn2)cc1 [Compound 172, 4-(((4-((5,5-dimethyl-2,4-dioxo-3-(4-(1-(trifluoromethyl)cyclopropyl)phenyl)imidazolidin-1-yl)methyl)pyridin-2-yl)amino)methyl)-N-methylbenzenesulfonamide]
